Experimental data reported in paper PMC6801448, “The Antioxidant and Antiproliferative Activities of 1,2,3-Triazolyl-L-Ascorbic Acid Derivatives” (International Journal of Molecular Sciences, 2019).
Where two headings read alike, the source gives them in different places.

What was measured:
[1] = DPPH radical scavenging assay; format: biochemical
Method: Likewise, L-ASA, the 1,2,3-triazole L-ASA derivatives with free C2-OH and C3-OH groups were expected to be potent antioxidants. Therefore, they were tested as radical scavengers by reaction with the stable free radical 2,2-diphenyl-1-picrylhydrazyl (DPPH^•).
Antioxidant capacity of selected compounds was assessed by 2,2-diphenyl-1-picrylhydrazyl assay (DPPH, Sigma Aldrich, Darmstadt, Germany), in which the antioxidant activity of compounds is measured by the reaction between a stable radical of 1,1-diphenyl-2-picylhydrazil (DPPH^•) and a selected compound according to the manufacturer recommendations. Briefly, compounds 4b–4e, 4f–4h, 4k, 4l, 4o, 4p–4s, 4t, 4v, 7c–7f, 7i–7n, 7q, 7p, and 7o were tested at 0.06, 0.12, 0.18, 0.23, 0.25, and 0.28 mM. L-ascorbic acid was used as the reference compound. Absorbance was measured 5 and 10 min after incubation of the compounds with the DPPH reagent. The reduction of DPPH with selected compounds was monitored by measuring the absorbance at a wavelength of 517 nm on the monochromator (Infinite M200 PRO, TECAN, Männedorf, Switzerland).

[2] = tested on: MCF-7 (breast adenocarcinoma); test: MTT proliferation assay, MCF-7; format: cell-based, Human; details: Homo sapiens, MCF7; 72 h, MTT
Method: (§1) Human tumor cell lines HeLa (cervical carcinoma), SW620 (colorectal adenocarcinoma, metastatic), A549 (lung adenocarcinoma), MCF−7 (breast adenocarcinoma), CFPAC-1 (pancreatic adenocarcinoma, metastatic), HCT-116 (colorectal carcinoma), and HepG2 (hepatocellular carcinoma), and normal cell lines HFF-1 (foreskin fibroblasts) and WI-38 (immortalized human lung fibroblast), were from the US American Type Culture Collection (ATCC, Manassas, VA, USA). Cells were cultured in a liquid nutrient medium (Dulbecco’s Modified Eagle Medium, LONZA, Basel, Switzerland) supplemented with 10% fetal bovine serum (FBS, Gibco, Grand Island, NY, USA), 2 mM L-glutamine (GIBCO, Grand Island, NY, USA), 100 μg/mL penicillin, and 100 μg/mL streptomycin (LONZA, Basel, Switzerland), in an incubator (NÜVE, Ankara, Turkey), at a humid atmosphere with 5% CO2 at 37 °C. Trypsin/EDTA Solution (Lonza, Basel, Switzerland), was used for cell passaging and cell detachment.
(§2) Adherent cells were seeded on 96 well microtiter plates (Falcon, New York, NY, USA) at a seeding density of 5000 cells per well, added in 150 μL of cell suspension in a nutrient medium. 24 h after seeding, cells were treated with compound 4b–4g, 4i, 4k–4t, 4v, 7c–7g, and 7i–7q dilutions in the range of 0.01 μM to 100 μM. L-ascoric acid (Sigma Aldrich, Darmstadt, Germany) and Carboxyamidotriazole (Sigma Aldrich, Darmstadt, Germany) were used as control compounds. Incubation of the cells with the compounds were performed for 72 h in a 5% CO2, in humid atmosphere at 37 °C. After incubation, nutrient medium was removed and 40 μL of the MTT reagent ([…]-2,5-diphenyltetrazole bromide (Invitrogen, Carlsbad, CA, USA) was added to each well. 3 h after incubation, 160 μL of DMSO (VWR CHEMICALS, Radnor, PA, USA) were added to each well to dissolve the crystals of purple formazane. The absorbance was measured at 570 nm (TECAN SUNRISE Microtiter plate reader (Männedorf, Switzerland). The experimentally measured optical densities (OD) were converted to the PG (percentage of growth), using the formulas according to the protocol assumed by NIH (National Institute of Health). The IC50 values (concentration causing 50% cell growth inhibition) for each compound were calculated by regression analysis of the survival count curve of the concentrations of the tested compounds. The results were processed in Excel 2010 (Microsoft, Redmond, WA, USA).

[3] = tested on: HeLa (cervical carcinoma); test: MTT proliferation assay, HeLa; format: cell-based; details: Homo sapiens, 72 h
Method: as §1, §2

[4] = tested on: HepG2 (hepatocellular carcinoma); test: MTT proliferation assay, HepG2; format: cell-based; details: Homo sapiens, 72 h
Method: as §1, §2

[5] = tested on: WI-38 (lung fibroblasts); test: MTT proliferation assay, WI-38; format: cell-based; details: Homo sapiens, 72 h, normal lung fibroblasts
Method: as §1, §2

[6] = tested on: HCT-116 (colorectal carcinoma); test: MTT proliferation assay, HCT-116; format: cell-based; details: Homo sapiens, 72 h
Method: as §1, §2

[7] = tested on: CFPAC-1 (ductal pancreatic adenocarcinoma); test: MTT proliferation assay, CFPAC-1; format: cell-based; details: Homo sapiens, 72 h
Method: as §1, §2

[8] = tested on: SW620 (colorectal adenocarcinoma, metastatic); test: MTT proliferation assay, SW620; format: cell-based; details: Homo sapiens, SW-620, 72 h
Method: as §1, §2

[9] = tested on: HFF-1 (foreskin fibroblasts); test: MTT proliferation assay, HFF-1; format: cell-based; details: Homo sapiens, 72 h, normal foreskin fibroblasts
Method: as §1, §2

[10] = tested on: A549 (lung adenocarcinoma); test: MTT proliferation assay, A549; format: cell-based; details: Homo sapiens, 72 h
Method: as §1, §2

[11] = 5 min treatment, read-out: IC50 of DPPH• inhibition, Treatm. 5 min
[12] = 10 min treatment, read-out: IC50 of DPPH• inhibition, Treatm. 10 min

Row | Compound | IC50 [1, 11] [µM] | IC50 [1, 12] [µM] | IC50 [2] [µM] | IC50 [3] [µM] | IC50 [4] [µM] | IC50 [5] [µM] | IC50 [6] [µM] | IC50 [7] [µM] | IC50 [8] [µM] | IC50 [9] [µM] | IC50 [10] [µM] | melting point [°C]
1 | O=C1O[C@H]([C@@H](O)Cn2cc(CCO)nn2)C(O)=C1O [Compound 4q, 6-deoxy-6-(4-(2-hydroxyethyl)-1,2,3-triazol-1-yl)-L-ascorbic acid] | 240 ± 20 | 230 | > 100 | > 100 | > 100 | > 100 | 63.3 | > 100 | > 100 | > 100 | > 100 | 184 to 186
2 | CC(C)(C)c1cn(C[C@H](O)[C@H]2OC(=O)C(O)=C2O)nn1 [Compound 4o, 6-[4-(tert-butyl)-1,2,3-triazol-1-yl]-6-deoxy-L-ascorbic acid] | 240 ± 28 | 240 ± 40 | > 100 | 93 | > 100 | 95 | > 100 | > 100 | > 100 | < 0.01 | > 100 | ≥ 250
3 | O=C1O[C@H]([C@@H](O)Cn2cc(-c3ccccc3O)nn2)C(O)=C1O [Compound 4i, 6-deoxy-6-[2-hydroxyphenyl-1,2,3-triazol-1-yl]-L-ascorbic acid] | > 280 | > 280 | > 100 | > 100 | > 100 | > 100 | > 100 | > 100 | > 100 | 0.92 | > 100 | 129 to 131
4 | CCCCCc1ccc(-c2cn(C[C@H](O)[C@H]3OC(=O)C(O)=C3O)nn2)cc1 [Compound 4k, 6-deoxy-6-[4-(4-pentylphenyl)-1,2,3-triazol-1-yl]-L-ascorbic acid] | 210 ± 70 | 130 ± 40 | 26.9 | > 100 | > 100 | > 100 | > 100 | > 100 | > 100 | 0.21 | > 100 | 237 to 239
5 | Cc1ccc(S(=O)(=O)NCc2cn(C[C@H](O)[C@H]3OC(=O)C(O)=C3O)nn2)cc1 [Compound 4r] | 250 | 270 ± 20 | > 100 | > 100 | > 100 | > 100 | > 100 | > 100 | > 100 | > 100 | > 100 | 125 to 127
6 | O=C1O[C@H]([C@@H](O)Cn2cc(CCCCl)nn2)C(O)=C1O [Compound 4p, 6-[4-(3-chloropropyl)-1,2,3-triazol-1-yl]-6-deoxy-L-ascorbic acid] | 150 ± 60 | 150 ± 60 | 99.6 | 48 | > 100 | 52.6 | > 100 | > 100 | > 100 | 6.05 | > 100 | 86 to 88
7 | Cc1ccc(-c2cn(C/C=C3\OC(=O)C(O)=C3O)nn2)cc1 [Compound 7f, 6-[4-tolyl-1,2,3-triazole-1-yl]-4,5-didehydro-5,6-dideoxy-L-ascorbic acid] | 100 ± 20 | 100 ± 20 | > 100 | > 100 | > 100 | > 100 | > 100 | > 100 | > 100 |  | > 100 | 188 to 192
8 | O=C1O/C(=C\Cn2cc(-c3ccccc3O)nn2)C(O)=C1O [Compound 7i, 4,5-didehydro-5,6-dideoxy-6-[4-(2-hydroxyphenyl)-1,2,3-triazole-1-yl]-L-ascorbic acid] | 100 ± 50 | 100 ± 40 | > 100 | > 100 | > 100 | > 100 | > 100 | > 100 | > 100 |  | > 100 | 167 to 169
9 | CC(C)(C)c1cn(C/C=C2\OC(=O)C(O)=C2O)nn1 [Compound 7o, 6-[4-tert-butyl-1,2,3-triazole-1-yl]-4,5-didehydro-5,6-dideoxy-L-ascorbic acid] | 200 | 200 | > 100 | > 100 | > 100 | > 100 | > 100 | > 100 | > 100 |  | > 100 | 182 to 184
10 | O=C1O/C(=C\Cn2cc(C3CC3)nn2)C(O)=C1O [Compound 7l, 6-[4-cyclopropyl-1,2,3-triazole-1-yl]-4,5-didehydro-5,6-dideoxy-L-ascorbic acid] | 200 ± 10 | 200 | > 100 | > 100 | > 100 | > 100 | > 100 | > 100 | > 100 |  | > 100 | 176 to 178
